# According to US7396837B2, “Antitumoral analogs of lamellarins” (Pharma Mar, S.A.U., priority 2002, dated 2008):
# Like-named read-outs stand apart in the source and are kept apart here.
# Key:
# Type in all cases: cell-based
# K-562 = assay: SRB colorimetric cell growth inhibition assay, K-562; settings: Homo sapiens; for GI50: GI=growth inhibition, read-out: GI50 K-562; for IC (TGI): read-out: TGI K-562
# Method in brief: (§1)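 Human tumour cells continuously exposed to compound in 96-well culture; growth and viability quantified colorimetrically by sulforhodamine B staining. Mean ± SD from triplicate wells; GI (growth inhibition), TGI (total growth inhibition, cytostatic) and LC (cell killing, cytotoxic) parameters derived.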
# A-549 = assay: SRB colorimetric cell growth inhibition assay, A-549; settings: Homo sapiens; for GI50: GI=growth inhibition, read-out: GI50 A-549; for IC (TGI): read-out: TGI A-549
# Method in brief: as §1
# SK-MEL-28 = assay: SRB colorimetric cell growth inhibition assay, SK-MEL-28; settings: Homo sapiens; for GI50: GI=growth inhibition, read-out: GI50 MEL-28; for IC (TGI): read-out: TGI MEL-28
# Method in brief: as §1
# HT-29 = assay: SRB colorimetric cell growth inhibition assay, HT-29; settings: Homo sapiens; for GI50: GI=growth inhibition, read-out: GI50 HT-29; for IC (TGI): read-out: TGI HT-29
# Method in brief: as §1
# LoVo = assay: SRB colorimetric cell growth inhibition assay, LoVo; settings: Homo sapiens, LoVo; for GI50: GI=growth inhibition, read-out: GI50 LOVO; for IC (TGI): read-out: TGI LOVO
# Method in brief: as §1
# LoVo-Dox = assay: SRB colorimetric cell growth inhibition assay, LoVo-Dox (MDR); settings: Homo sapiens; for GI50: GI=growth inhibition, read-out: GI50 LOVO-DOX; for IC (TGI): read-out: TGI LOVO-DOX
# Method in brief: as §1
# DU-145 = assay: SRB colorimetric cell growth inhibition assay, DU-145; settings: Homo sapiens; for GI50: GI=growth inhibition, read-out: GI50 DU-145; for IC (TGI): read-out: TGI DU-145
# Method in brief: as §1
# LNCaP = assay: SRB colorimetric cell growth inhibition assay, LNCaP; settings: Homo sapiens, LNCaP; for GI50: GI=growth inhibition, read-out: GI50 LN-caP; for IC (TGI): read-out: TGI LN-caP
# Method in brief: as §1
# SK-BR-3 = assay: SRB colorimetric cell growth inhibition assay, SK-BR-3; settings: Homo sapiens; for GI50: GI=growth inhibition, read-out: GI50 SK-BR-3; for IC (TGI): read-out: TGI SK-BR-3
# Method in brief: as §1
# IGROV = assay: SRB colorimetric cell growth inhibition assay, IGROV; settings: Homo sapiens, IGROV; for GI50: GI=growth inhibition, read-out: GI50 IGROV; for IC (TGI): read-out: TGI IGROV
# Method in brief: as §1
# IGROV-ET = assay: SRB colorimetric cell growth inhibition assay, IGROV-ET (ET-743 resistant); settings: Homo sapiens; for GI50: GI=growth inhibition, read-out: GI50 IGROV-ET; for IC (TGI): read-out: TGI IGROV-ET
# Method in brief: as §1
# HeLa = assay: SRB colorimetric cell growth inhibition assay, HeLa; settings: Homo sapiens, HeLa; for GI50: GI=growth inhibition, read-out: GI50 HELA; for IC (TGI): read-out: TGI HELA
# Method in brief: as §1
# HeLa-APL = assay: SRB colorimetric cell growth inhibition assay, HeLa-APL (aplidine resistant); settings: Homo sapiens; for GI50: read-out: GI50 HELA-APL; for IC (TGI): read-out: TGI HELA-APL
# Method in brief: as §1
# PANC-1 = assay: SRB colorimetric cell growth inhibition assay, PANC-1; settings: Homo sapiens; for GI50: GI=growth inhibition, read-out: GI50 PANC-1; for IC (TGI): read-out: TGI PANC-1
# Method in brief: as §1
# [1] = total growth inhibition (cytostatic effect)
# [2] = TGI=total growth inhibition (cytostatic effect)
smiles,measurement,setting,value
COc1cc2c(cc1O)oc(=O)c1c2c(-c2cccc([N+](=O)[O-])c2)c2c3cc(OC)c(O)cc3ccn21 [Compound 221],GI50,"K-562; K562, K-562",0.0883 µM
same,CC50,"K-562; K562, K-562, cell killing (cytotoxic effect), read-out: LC50 K-562",20.1 µM
same,IC (TGI),"K-562; K562, K-562, total growth inhibition (cytostatic effect)",20.1 µM
same,GI50,"A-549; A549, A-549",0.0802 µM
same,CC50,"A-549; A549, A-549, cell killing (cytotoxic effect), read-out: LC50 A-549",20.1 µM
same,IC (TGI),"A-549; A549, A-549, total growth inhibition (cytostatic effect)",20.1 µM
same,GI50,"SK-MEL-28; SK-MEL-28, MEL-28",0.106 µM
same,CC50,"SK-MEL-28; SK-MEL-28, MEL-28, cell killing (cytotoxic effect), read-out: LC50 MEL-28",20.1 µM
same,IC (TGI),"SK-MEL-28; SK-MEL-28, MEL-28, total growth inhibition (cytostatic effect)",20.1 µM
same,GI50,"HT-29; HT-29, HT-29",20.1 µM
same,CC50,"HT-29; HT-29, HT-29, cell killing (cytotoxic effect), read-out: LC50 HT-29",20.1 µM
same,IC (TGI),"HT-29; HT-29, HT-29, total growth inhibition (cytostatic effect)",20.1 µM
same,GI50,LoVo,2.41 µM
same,CC50,"LoVo; cell killing (cytotoxic effect), read-out: LC50 LOVO",15.9 µM
same,IC (TGI),LoVo; [1],6.2 µM
same,GI50,LoVo-Dox; LOVO-DOX,2.83 µM
same,CC50,"LoVo-Dox; LOVO-DOX, cell killing (cytotoxic effect), read-out: LC50 LOVO-DOX",20.1 µM
same,IC (TGI),"LoVo-Dox; LOVO-DOX, total growth inhibition (cytostatic effect)",14.2 µM
same,GI50,"DU-145; DU-145, DU-145",0.0431 µM
same,CC50,"DU-145; DU-145, DU-145, cell killing (cytotoxic effect), read-out: LC50 DU-145",20.1 µM
same,IC (TGI),"DU-145; DU-145, DU-145, total growth inhibition (cytostatic effect)",0.257 µM
same,GI50,LNCaP; LN-caP,0.0722 µM
same,CC50,"LNCaP; LN-caP, cell killing (cytotoxic effect), read-out: LC50 LN-caP",20.1 µM
same,IC (TGI),"LNCaP; LN-caP, total growth inhibition (cytostatic effect)",5.02 µM
same,GI50,"SK-BR-3; SK-BR-3, SK-BR-3",1.53 µM
same,CC50,"SK-BR-3; SK-BR-3, SK-BR-3, cell killing (cytotoxic effect), read-out: LC50 SK-BR-3",20.1 µM
same,IC (TGI),"SK-BR-3; SK-BR-3, SK-BR-3, total growth inhibition (cytostatic effect)",12.9 µM
same,GI50,IGROV,0.0819 µM
same,CC50,"IGROV; cell killing (cytotoxic effect), read-out: LC50 IGROV",20.1 µM
same,IC (TGI),IGROV; [1],20.1 µM
same,GI50,IGROV-ET; IGROV-ET,0.0648 µM
same,CC50,"IGROV-ET; IGROV-ET, cell killing (cytotoxic effect), read-out: LC50 IGROV-ET",20.1 µM
same,IC (TGI),"IGROV-ET; IGROV-ET, total growth inhibition (cytostatic effect)",20.1 µM
same,GI50,HeLa,0.0564 µM
same,CC50,"HeLa; cell killing (cytotoxic effect), read-out: LC50 HELA",20.1 µM
same,IC (TGI),HeLa; [1],20.1 µM
same,GI50,"HeLa-APL; HELA-APL, GI=growth inhibition",0.0796 µM
same,CC50,"HeLa-APL; HELA-APL, cell killing (cytotoxic effect), read-out: LC50 HELA-APL",20.1 µM
same,IC (TGI),"HeLa-APL; HELA-APL, total growth inhibition (cytostatic effect)",20.1 µM
same,GI50,"PANC-1; PANC-1, PANC-1",0.0786 µM
same,CC50,"PANC-1; PANC-1, PANC-1, cell killing (cytotoxic effect), read-out: LC50 PANC-1",20.1 µM
same,IC (TGI),"PANC-1; PANC-1, PANC-1, total growth inhibition (cytostatic effect)",20.1 µM
COc1cc(-c2c3n(c4c(=O)oc5cc(OC(=O)[C@H](CO)NC(=O)OC(C)(C)C)c(OC)cc5c24)CCc2c-3cc(OC)c(OC)c2OC(=O)[C@H](CO)NC(=O)OC(C)(C)C)ccc1OC(=O)[C@H](CO)NC(=O)OC(C)(C)C [Compound 60],GI50,"K-562; K562, K-562",0.697 µM
same,IC (TGI),"K-562; K562, K-562, TGI=total growth inhibition (cytostatic effect)",2.19 µM
same,CC50,"K-562; K562, read-out: LC50 K-562, K-562, LC=cell killing (cytotoxic effect)",6.87 µM
same,GI50,"A-549; A549, A-549",1.62 µM
same,IC (TGI),"A-549; A549, A-549, TGI=total growth inhibition (cytostatic effect)",4.63 µM
same,CC50,"A-549; A549, read-out: LC50 A-549, A-549, LC=cell killing (cytotoxic effect)",9.15 µM
same,GI50,"SK-MEL-28; SK-MEL-28, MEL-28",1.17 µM
same,IC (TGI),"SK-MEL-28; SK-MEL-28, MEL-28, TGI=total growth inhibition (cytostatic effect)",4.14 µM
same,CC50,"SK-MEL-28; SK-MEL-28, read-out: LC50 MEL-28, MEL-28, LC=cell killing (cytotoxic effect)",9.15 µM
same,GI50,"HT-29; HT-29, HT-29",2.42 µM
same,IC (TGI),"HT-29; HT-29, HT-29, TGI=total growth inhibition (cytostatic effect)",5.88 µM
same,CC50,"HT-29; HT-29, read-out: LC50 HT-29, HT-29, LC=cell killing (cytotoxic effect)",9.15 µM
same,CC50,"LoVo; read-out: LC50 LOVO, LOVO, LC=cell killing (cytotoxic effect)",7.94 µM
same,GI50,LoVo,1.61 µM
same,IC (TGI),LoVo; [2],3.58 µM
same,GI50,LoVo-Dox; LOVO-DOX,2.82 µM
same,CC50,"LoVo-Dox; read-out: LC50 LOVO-DOX, LOVO-DOX, LC=cell killing (cytotoxic effect)",9.15 µM
same,IC (TGI),"LoVo-Dox; LOVO-DOX, TGI=total growth inhibition (cytostatic effect)",9.15 µM
same,GI50,"DU-145; DU-145, DU-145",1.18 µM
same,IC (TGI),"DU-145; DU-145, DU-145, TGI=total growth inhibition (cytostatic effect)",2.65 µM
same,CC50,"DU-145; DU-145, read-out: LC50 DU-145, DU-145, LC=cell killing (cytotoxic effect)",5.97 µM
same,GI50,LNCaP; LN-caP,0.55 µM
same,IC (TGI),"LNCaP; LN-caP, TGI=total growth inhibition (cytostatic effect)",1.79 µM
same,CC50,"LNCaP; read-out: LC50 LN-caP, LN-caP, LC=cell killing (cytotoxic effect)",5.25 µM
same,GI50,"SK-BR-3; SK-BR-3, SK-BR-3",0.491 µM
same,IC (TGI),"SK-BR-3; SK-BR-3, SK-BR-3, TGI=total growth inhibition (cytostatic effect)",1.64 µM
same,CC50,"SK-BR-3; SK-BR-3, read-out: LC50 SK-BR-3, SK-BR-3, LC=cell killing (cytotoxic effect)",8.58 µM
same,CC50,"IGROV; read-out: LC50 IGROV, IGROV, LC=cell killing (cytotoxic effect)",9.15 µM
same,GI50,IGROV,0.682 µM
same,IC (TGI),IGROV; [2],3.29 µM
same,GI50,IGROV-ET; IGROV-ET,2.56 µM
same,IC (TGI),"IGROV-ET; IGROV-ET, TGI=total growth inhibition (cytostatic effect)",6.16 µM
same,CC50,"IGROV-ET; read-out: LC50 IGROV-ET, IGROV-ET, LC=cell killing (cytotoxic effect)",9.15 µM
same,CC50,"HeLa; read-out: LC50 HELA, HELA, LC=cell killing (cytotoxic effect)",6.13 µM
same,IC (TGI),HeLa,2.51 µM
same,GI50,HeLa,1.02 µM
same,GI50,HeLa-APL,3.49 µM
same,CC50,"HeLa-APL; read-out: LC50 HELA-APL, HELA-APL, LC=cell killing (cytotoxic effect)",9.15 µM
same,IC (TGI),HeLa-APL,9.15 µM
same,GI50,"PANC-1; PANC-1, PANC-1",0.747 µM
same,IC (TGI),"PANC-1; PANC-1, PANC-1, TGI=total growth inhibition (cytostatic effect)",4.4 µM
same,CC50,"PANC-1; PANC-1, read-out: LC50 PANC-1, PANC-1, LC=cell killing (cytotoxic effect)",9.15 µM
